Tests used:
[1] = test system: transfected PS 120 fibroblast cells; assay: LDH leakage from transfected cells; assay type: cell-based; settings: during NHE inhibiting effect
Procedure: In the transfected cells used in this test, it took at least 30 minutes before the NHE3 inhibition effect induced by squalamine was observed.

[2] = test system: tumor induced capillary formation in rabbit cornea; assay: Rabbit corneal micropocket assay (VX2 carcinoma stimulus); assay type: in vivo; settings: for reduction of Angiogenesis Index (AI) vs untreated eyes: pellet 20% squalamine
Text: In determining whether a compound is antiangiogenic, the rabbit corneal micropocket assay is an accepted standard test. In this test, an incision is made in one rabbit cornea, and a stimulus is placed in the incision. The stimulus is used to induce blood vessel formation in the normally avascular corneal region. As one example, a solid tumor in a polymeric matrix can be placed in the cornea as the stimulus because the tumor will release a number of angiogenic growth factors to stimulate new capillary growth. The tumor-derived angiogenic growth factors stimulate the endothelial cells at the scleral junction in the eye to initiate blood vessel growth toward the stimulus. A second polymer pellet (e.g., an ethylene/vinyl acetate copolymer) is placed between the scleral junction and the stimulus. This polymer pellet is either empty (a negative control test pellet), or it contains a compound whose antiangiogenic characteristics are to be tested. The polymer pellet is used to provide a controlled release of the material to be studied. Because of the avascular cornea background in the rabbit cornea, one can visually assess the results qualitatively. In addition, the number of blood vessels can be counted and their length, etc., can be measured to provide a more quantitative evaluation of the results.
The VX2 rabbit carcinoma was implanted in 26 rabbit eyes, in the normally avascular corneal region, to act as an angiogenesis stimulus. […] The eyes were examined weekly using a slit lamp stereomicroscope for three weeks after tumor implantment, and the Angiogenesis Index (“AI”) was calculated (this calculation will be described in more detail below with reference to FIG. 8). […]
To provide a quantitative evaluation, the Angiogenesis Index (“AI”) of each eye was determined. […]
The vessel length (“Lvessel”) was then measured in each cornea. The vessel length is the length of the longest vessel measured from the cornea-scleral junction to the distal edge of the longest vessel growth. The Angiogenesis Index then is determined from these measurements by the following equation: [formula]

[3] = test system: C4-2 cells; assay: C4-2 cell growth in vitro ([3H]-thymidine incorporation); assay type: cell-based, human
Procedure: The anti-proliferative effect of squalamine was evaluated in tissue culture by both crystal violet staining and [^3H]-thymidine incorporation, on the LNCaP/C4-2 human prostate cancer progression model. Developed by applicants' laboratory, this lineage-derived cell line recapitulates the progression of human neoplastic prostate disease from an androgen-dependent and minimally metastatic condition (LNCaP cells) to an androgen-independent (defined as being able to proliferate in castrate hosts) and highly aggressive state (C4-2 subline).

[4] = test system: parental 2008 cell line; assay: Human ovarian tumor 2008 xenograft with cisplatin; assay type: in vivo, female Swiss nude mice; settings: cisplatin single dose 4 mg/kg, squalamine 2 mg/kg, days 1-10
Procedure: Human ovarian tumor cells were injected subcutaneously (5×10^7 cells per animal) in the mid-back region of female Swiss nude mice. The human ovarian tumors were either the parental 2008 cell line (cf. R. J. Pietras et al., Oncogene 9, 1829-1838 (1994)) or a transfected variant overexpressing the Her-2/neu receptor. The overexpression of the Her-2/neu receptor is considered to make the resulting xenograft tumors more angiogenic and less responsive to chemotherapy. After one week, animals were randomized to groups receiving no treatment (controls), a single dose of cisplatin (4 mg/kg), daily treatment with squalamine (2 mg/kg, days 1-10) or cisplatin plus squalamine. The growth of tumors was then scored on day 28 following initiation of chemotherapy. The results were very similar with the parental 2008 tumor and the transfected variant overexpressing the Her-2/neu receptor. […] In this xenograft model, the [day 28 mean treated tumor weight increase divided by the day 28 mean control tumor weight increase (T/C)] x 100% was subtracted from 100% to give the tumor growth inhibition (TGI) value for each group.

[5] = target: NHE1 (Homo sapiens, UniProt P19634); assay: NHE activity in PS 120 fibroblasts transfected with human NHE1; assay type: cell-based; parameters: expressed in transfected cells; host or cells: PS 120 NHE-deficient fibroblasts; settings: 7 μg/ml squalamine; acid loaded cells
Procedure: The following describes the test used to determine that squalamine inhibits NHE3, but not NHE1 or NHE2. NHE deficient fibroblast cells (PS 120) transfected with an individual human NHE gene were loaded with a pH sensitive dye 2′7′-bis(2-carboxyethyl)-5,6-carboxyfluorescein (BCECF). NHE activity was measured by spectrofluorometric methods using this dye and by amiloride sensitive isotopic ^22Na^+cellular uptake. The cells were acidified by exposure to ammonium chloride in the absence of sodium to eliminate sodium and deactivate the proton pumps. The ammonium chloride was washed out by exposing the cells to tetramethyl ammonium chloride in bicarbonate free medium. […] Sodium then was added back at various concentrations (see the abscissa of FIGS. 5a and 5b) to drive the antiporters (human NHE3 in FIG. 5a and human NHE1 in FIG. 5b). The antiporters were driven at different rates, as evidenced by the cellular pH change rate, depending on the amount of sodium added.

Sequence of NHE1 (P19634 whole entry): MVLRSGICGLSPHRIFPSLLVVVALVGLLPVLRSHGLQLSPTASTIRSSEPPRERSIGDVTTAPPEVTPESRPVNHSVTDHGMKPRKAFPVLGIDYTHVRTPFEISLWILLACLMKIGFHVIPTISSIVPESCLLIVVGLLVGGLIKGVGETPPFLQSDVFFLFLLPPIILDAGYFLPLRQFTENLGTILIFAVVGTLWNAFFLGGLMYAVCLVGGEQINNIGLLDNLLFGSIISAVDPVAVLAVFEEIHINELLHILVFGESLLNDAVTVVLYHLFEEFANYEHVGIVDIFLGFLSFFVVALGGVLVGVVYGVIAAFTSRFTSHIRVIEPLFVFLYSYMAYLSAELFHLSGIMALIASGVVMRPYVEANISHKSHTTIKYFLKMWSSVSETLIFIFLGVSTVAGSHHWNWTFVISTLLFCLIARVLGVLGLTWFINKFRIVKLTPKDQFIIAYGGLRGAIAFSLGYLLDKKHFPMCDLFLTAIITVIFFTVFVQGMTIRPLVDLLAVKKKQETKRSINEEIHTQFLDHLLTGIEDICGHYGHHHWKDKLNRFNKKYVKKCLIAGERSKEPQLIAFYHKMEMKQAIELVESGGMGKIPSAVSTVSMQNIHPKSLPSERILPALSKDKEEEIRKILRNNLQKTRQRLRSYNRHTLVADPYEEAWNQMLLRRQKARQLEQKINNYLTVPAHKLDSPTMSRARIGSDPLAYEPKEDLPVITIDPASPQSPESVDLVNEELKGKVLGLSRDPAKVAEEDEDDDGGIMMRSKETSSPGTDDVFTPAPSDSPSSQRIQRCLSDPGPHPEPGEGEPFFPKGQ

SMILES: CC(C)[C@@H](CC[C@@H](C)[C@H]1CC[C@H]2[C@@H]3[C@H](O)C[C@H]4C[C@@H](NCCCNCCCCN)CC[C@]4(C)[C@H]3CC[C@]12C)OS(=O)(=O)O [Squalamine, squalamine]
- LDH leakage from the cell [1]: absence of lactase dehydrogenase (LDH) leakage
- reduction of Angiogenesis Index (AI) vs untreated eyes ([2]; Day 14): 37%
- reduction of Angiogenesis Index (AI) vs untreated eyes ([2]; Day 21): 43%
- vasculature of tumors in sectioned corneas ([2]; histology after the test): essentially no vasculature associated with those tumors
- growth of C4-2 cells, squalamine by itself ([3]; no exogenous VEGF): nominal effect
- C4-2 proliferation ([3]; with addition of exogenous VEGF, to a greater extent than LNCaP): inhibited
- Day 28 Mean Tumor Size [4]: 2254 mm^3
- Tumor Growth Inhibition (TGI) Index ([4]; day 28): 41%
- effect on human NHE1 antiporter (pH change rate) [5]: no effective difference in the pH change rate
